Residues, ends and D or L forms follow the SMILES beside them. *: point of attachment. Palmitoyl = CCCCCCCCCCCCCCCC(=O)*
Assays:
FPR1 = experiment: Inhibition of fMLF-induced superoxide release, human neutrophils; assay type: cell-based; conditions: pepducin 1 μM; fMLF 50 nM
Source text: (§1) Human peripheral blood neutrophils were isolated from buffy coats from healthy blood donors using dextran sedimentation and Ficoll-Paque gradient centrifugation as described. The remaining erythrocytes were disrupted by hypotonic lysis and the neutrophils were washed twice, suspended in KRG and, stored on melting ice until use. This isolation process permits cells to be purified with minimal granule mobilization. The buffy coats were obtained from the blood bank at Sahlgrenska University Hospital. Ethics approval was not needed since the buffy coats were provided anonymously and could not be traced back to a specific individual. This is in line with Swedish legislation section code 4§ 3p SFS 2003:460 (Lag om etikprövning av forskning som avser människor).
NADPH-oxidase activity was determined using an isoluminol and HRP-enhanced chemiluminescence (CL) system that allow for the determination of superoxide production. The CL activity was measured in a six-channel Biolumat LB 9505 apparatus (Berthold Co., Wildbad, Germany), using disposable 4-mL polypropylene tubes with 1 mL reaction mixture. […] The light emission was recorded continuously over time and presented as superoxide production (in arbitrary light units, cpm x10^-6) as a function of time (min). The activity before stimulus addition was recorded as basal line and this activity was not changed in vehicle control samples. […]

FPR2 = target: T1, FPR2 (Homo sapiens, UniProt P25090); experiment: Inhibition of WKYMVM-induced superoxide release, human neutrophils; assay type: cell-based
T1 construct: Human peripheral blood neutrophils were isolated from buffy coats from healthy blood donors; endogenous in cells; host or cells: human peripheral blood neutrophils from buffy coats of healthy donors
T1 sequence (P25090 1-351): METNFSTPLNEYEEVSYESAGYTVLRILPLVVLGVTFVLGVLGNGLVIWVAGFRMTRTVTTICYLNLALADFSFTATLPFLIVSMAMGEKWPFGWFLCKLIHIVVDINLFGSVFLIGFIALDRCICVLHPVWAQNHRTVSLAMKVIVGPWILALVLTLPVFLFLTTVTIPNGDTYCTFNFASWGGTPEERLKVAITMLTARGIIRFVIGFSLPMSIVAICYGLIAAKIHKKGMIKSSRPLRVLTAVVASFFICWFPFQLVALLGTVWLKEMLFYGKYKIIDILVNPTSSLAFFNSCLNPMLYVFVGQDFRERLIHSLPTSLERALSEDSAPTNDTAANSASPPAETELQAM
Source text: as §1
NADPH-oxidase activity was determined using an isoluminol and HRP-enhanced chemiluminescence (CL) system that allow for the determination of superoxide production. The CL activity was measured in a six-channel Biolumat LB 9505 apparatus (Berthold Co., Wildbad, Germany), using disposable 4-mL polypropylene tubes with 1 mL reaction mixture. The tubes contained 4 U HRP and 10 μg/mL isoluminol together with the cells that were equilibrated in the Biolumat for 5 min at 37°C, after which the stimulus solution (100 μL) was added. The light emission was recorded continuously over time and presented as superoxide production (in arbitrary light units, cpm x10^-6) as a function of time (min). The activity before stimulus addition was recorded as basal line and this activity was not changed in vehicle control samples. […]
Data analysis was performed using Graph Pad Prism 7.0. The EC50/IC50 values were determined from experiments in which the activities were normalized to the response induced by maximal response or induced by agonist in the absence of inhibitor. […]
Human neutrophils (10^5 cells) were pre-incubated without (solid line) or with mF2Pal16 (1 μM) for 5 min before stimulation with A) the FPR2 specific agonist WKYMVM (50 nM, indicated by the arrow). […] The release of superoxide anions was measured continuously. […]

## CCCCCCCCCCCCCCCC(=O)N[C@@H](CCCCN)C(=O)N[C@H](C(=O)N[C@@H](CC(N)=O)C(=O)N[C@@H](CCCNC(=N)N)C(=O)N[C@@H](CCCNC(=N)N)C(=O)N[C@@H](CC(N)=O)C(=O)N[C@@H](CC(C)C)C(=O)N[C@H](C(=O)N[C@@H](CC(N)=O)C(=O)N[C@@H](CO)C(=O)N[C@@H](CO)C(=O)N[C@@H](CCCNC(=N)N)C(=O)N1CCC[C@H]1C(=O)N[C@@H](CC(C)C)C(=O)N[C@@H](CCCNC(=N)N)C(=O)N[C@H](C(=O)O)C(C)C)C(C)C)[C@@H](C)CC [mF2Pal16] (Palmitoyl-KINRRNLVNSSRPLRV-OH; C-terminus assumed)
FPR1
  effect on fMLF response, human neutrophils: lack of inhibitory effect
FPR2; human neutrophils
  magnitude of FPR2 inhibitory effect compared with PBP10: not of the same magnitude as that of the most potent FPR2 inhibitor PBP10
FPR2; pepducin 1 μM pre-incubated (mF2Pal16, F1Pal16: 5 min), WKYMVM 50 nM
  effect on WKYMVM response, human neutrophils: largely inhibited

Source: article PMC5608352, “Formyl peptide derived lipopeptides disclose differences between the receptors in mouse and men and call the pepducin concept in question” (PLoS ONE, 2017)
